Laboratory results from ChEMBL document CHEMBL4229448 (Bioorg Med Chem Lett, 2018).
Calls of active or inactive are those of the source. No cut-off for these calls is given here.

What was measured:
[1] = Metabolic stability in human plasma assessed as compound remaining measured after 120 mins; assay type: ADME, cell-free; conditions: read-out: Stability
SH-SY5Y = test: Cytotoxicity against human SH-SY5Y cells assessed as decrease in cell viability after 48 hrs by MTT assay; assay type: cell-based
[2] = Half life in rat liver microsomes; assay type: ADME, microsome
Cholinesterase [3] = target: T1, Cholinesterase (Equus caballus, UniProt P81908)
T1 sequence (P81908 whole entry): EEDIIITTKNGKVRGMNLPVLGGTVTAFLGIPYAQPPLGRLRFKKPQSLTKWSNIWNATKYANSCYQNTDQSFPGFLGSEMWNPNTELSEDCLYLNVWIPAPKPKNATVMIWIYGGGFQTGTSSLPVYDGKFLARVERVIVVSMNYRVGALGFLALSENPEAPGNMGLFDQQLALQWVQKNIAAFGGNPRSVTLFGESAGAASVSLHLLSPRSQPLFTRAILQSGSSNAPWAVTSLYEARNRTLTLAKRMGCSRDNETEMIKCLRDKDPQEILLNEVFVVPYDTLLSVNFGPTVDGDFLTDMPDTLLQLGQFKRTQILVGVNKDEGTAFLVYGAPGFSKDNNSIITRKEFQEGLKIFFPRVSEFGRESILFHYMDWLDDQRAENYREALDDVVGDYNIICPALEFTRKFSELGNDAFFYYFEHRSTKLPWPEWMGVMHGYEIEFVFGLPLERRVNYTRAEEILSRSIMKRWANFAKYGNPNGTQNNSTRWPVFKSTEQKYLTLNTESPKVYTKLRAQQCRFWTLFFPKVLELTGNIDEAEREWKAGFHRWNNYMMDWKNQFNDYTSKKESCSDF
Description: Inhibition of horse serum BuChE using acetylthiocholine as substrate after 60 mins by FRET assay

Acetylcholinesterase [4] = target: T2, Acetylcholinesterase (Homo sapiens, UniProt P22303); test: Inhibition of human recombinant AChE at 0.05 uM using acetylthiocholine as substrate by UV-visible spectrophotometric Ellman's method
T2 sequence (P22303 whole entry): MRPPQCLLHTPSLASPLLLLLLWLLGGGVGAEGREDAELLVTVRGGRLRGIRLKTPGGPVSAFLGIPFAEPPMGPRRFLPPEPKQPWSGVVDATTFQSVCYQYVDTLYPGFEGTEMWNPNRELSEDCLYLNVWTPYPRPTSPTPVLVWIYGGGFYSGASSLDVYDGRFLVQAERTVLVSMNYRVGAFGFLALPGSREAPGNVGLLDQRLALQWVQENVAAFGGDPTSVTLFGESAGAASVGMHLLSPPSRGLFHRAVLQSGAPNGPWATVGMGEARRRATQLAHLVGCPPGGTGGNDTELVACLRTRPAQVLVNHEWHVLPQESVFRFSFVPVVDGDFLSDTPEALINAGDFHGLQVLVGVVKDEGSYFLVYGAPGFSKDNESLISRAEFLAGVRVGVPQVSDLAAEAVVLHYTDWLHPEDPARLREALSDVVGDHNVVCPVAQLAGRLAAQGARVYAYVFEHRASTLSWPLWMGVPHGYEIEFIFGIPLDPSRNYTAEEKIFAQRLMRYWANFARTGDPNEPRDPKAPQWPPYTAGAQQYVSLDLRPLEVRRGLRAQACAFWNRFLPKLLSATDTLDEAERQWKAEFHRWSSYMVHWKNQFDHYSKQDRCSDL

[5] = Half life in pH 6.5 fasted state simulated intestinal fluid; assay type: ADME
Cholinesterase [6] = target: T1, Cholinesterase; test: Inhibition of horse serum BuChE using acetylthiocholine as substrate by UV-visible spectrophotometric Ellman's method
Acetylcholinesterase [7] = target: T2, Acetylcholinesterase; test: Inhibition of human recombinant AChE using acetylthiocholine as substrate by UV-visible spectrophotometric Ellman's method
[8] = target: Cholinesterase (Equus caballus) (UniProt P81908); test: Inhibition of horse serum BuChE at 0.1 uM using acetylthiocholine as substrate by UV-visible spectrophotometric Ellman's method
Chain of Cholinesterase (Equus caballus) (P81908 whole entry): as the sequence (P81908 whole entry) above

[9] = Effective permeability of the compound at 100 ug/ml after 16 hrs by PAMPA

Row | Structure (SMILES) | remaining at 2 h [1] [%] | IC50 (SH-SY5Y) [nM] | half-life [2] [h] | IC50 (Cholinesterase [3]) [nM] | inhibition (Acetylcholinesterase [4]) | half-life [5] [h] | IC50 (Cholinesterase [6]) [nM] | IC50 (Acetylcholinesterase [7]) [nM] | inhibition [8] | Papp at 16 h, 100 ug/ml [9] [×10⁻⁶ cm/s]
1 | CC(C)[N+](C)(CCOC(=O)C1c2ccccc2Oc2ccccc21)C(C)C [PROPANTHELINE] | 2.83 |  |  |  |  |  |  |  |  | 
2 | COc1ccc2c(c1)C/C(=C/c1ccccc1-c1ccc3ccccc3c1)C2=O | 99.2 | > 50000 | 4.65 | 3970 | Active | 10.2 | 101 | 32.4 | Active | 28.5
3 | COc1ccc2c(c1)C/C(=C/c1ccccc1-c1ccc3nc(N)ccc3c1)C2=O | 96.1 | > 50000 | 3.78 | 1780 | Active | 9.63 | 13.1 | 14.7 | Active | 24.3
4 | COc1ccc2c(c1)C/C(=C/c1ccccc1-c1ccccc1)C2=O | 98.6 | > 50000 | 4.05 | 3310 | Active | 9.85 | 125 | 29.8 | Active | 26.6
5 | CC[C@H]1OC(=O)[C@H](C)[C@@H](O[C@H]2C[C@@](C)(OC)[C@@H](O)[C@H](C)O2)[C@H](C)[C@@H](O[C@@H]2O[C@H](C)C[C@H](N(C)C)[C@H]2O)[C@](C)(O)C[C@@H](C)C(=O)[C@H](C)[C@@H](O)[C@]1(C)O [ERYTHROMYCIN] |  |  |  |  |  | 8.25 |  |  |  | 
6 | COc1ccc(-c2ccccc2/C=C2/Cc3cc(OC)ccc3C2=O)cc1 | 97.5 | > 50000 | 3.58 | 2150 | Active | 8.57 | 99.4 | 21.2 | Active | 26.2
7 | COc1ccc2c(c1)C/C(=C/C1CCN(Cc3ccccc3)CC1)C2=O |  |  |  |  |  |  | 341 | 44.1 | Active | 
8 | C[C@@H](NC(=O)c1cc(C(=O)N[C@@H](Cc2ccccc2)[C@H](O)CNC2CC2)cc(N(C)S(C)(=O)=O)c1)c1ccccc1 |  |  |  |  |  |  | 14.6 |  |  | 
